Results: patent US20050048539A1, “Methods to monitor molecule conformation and molecule/molecule proximity” (The General Hospital Corporation, priority 2003, published 2005)
Entries after “also recorded” stand apart in the source; their conditions may differ.

How the values were obtained:
Aβ40, Aβ42 and Aβ1-x = test: Aβ ELISA of conditioned medium of PS70 cells treated with NSAIDs; assay type: cell-based, human; settings: 24 hours; for Aβ1-x level (ELISA): high doses
Experimental: (§1) Cell culture and drug treatment: PS70 cells, CHO cells stably overexpressing wild-type human PS1 and APP 751 (Xia, W. et al., J. Biol. Chem. 272, 7977-7982, 1997), mouse N2a neuroblastoma, or human embryonic kidney (HEK) cells were used in this study. Cells were cultured in OPTI-MEMI with 5% fetal bovine serum at 37° C. with 5% CO2 in a tissue culture incubator. Primary cultured hippocampal-cortical neurons were prepared from embryonic day 16-18 mouse brain as described (Berezovska, O. et al., Brain Res Mol Brain Res 69: 273-280, 1999).
(§2) The NSAIDs (S)-ibuprofen (250 mM, Biomol, Plymouth Meeting, Penn.), (R)-ibuprofen (250 mM, Biomol), and flurbiprofen (250 mM, Calbiochem, San Diego, Calif.) were dissolved in 100% ethanol. […] Cells were plated onto either 12-well plates (for Aβ determinations) or onto 4-chamber slides (FLIM studies) and treated for 24 hours with NSAIDs prior to the analysis. A vehicle control chamber treated with ethanol or DMSO (0.1%) was included in each experiment. Cell toxicity was analyzed for all drugs tested by measuring adenylate kinase levels using Toxi-light reagent (Camdex, New Jersey).
(§3) ELISA, BACE-specific enzymatic activity assay and Western Blots: For Aβ ELISA we used 500 μl of conditioned medium collected 24 hours post-treatment. Formic acid-extractable Aβ in the mouse brain was measured as described (Fukumoto, H.,et al., Am. J. Pathol. 164, 719-725, 2004). The capture antibody was BNT77 and the detection antibody was horseradish peroxidase (HRP)-conjugated BA27 for Aβ40 and HRP-conjugated BC05 for Aβ42 (Asami-Odaka, A. et al., Biochemistry 34: 10272-10278, 1995). We used BAN50 as a capture antibody and HRP-conjugated BNT77 as a detection antibody for Aβ1-x (a gift from Takeda, Japan) (Asami-Odaka, A. et al., Biochemistry 34: 10272-10278, 1995). BACE activity was measured using a sensitive BACE-specific enzymatic activity assay (Fukumoto, H.,et al., Am. J. Pathol. 164, 719-725, 2004).
We treated Chinese hamster ovary (CHO) cells stably transfected with APP and PS1 (PS70 cells) with several NSAIDs at different doses for 24 hours and measured Aβ40 and Aβ42 using ELISA (FIG. 14).

APP and PS1 = target: T1, APP and PS1 (Homo sapiens, UniProt P49768); test: FLIM assay for PS1-APP proximity after NSAID treatment; assay type: cell-based; settings: donor APP-CT-FITC, acceptor loop PS1-Cy3, 24 h, 375 μM S-ibuprofen, 375 μM flurbiprofen, 500 μM aspirin, DMSO vehicle 2127 ± 224
T1 construct: expressed in transfected cells
Experimental: as §1, §2

Aβ42 and Aβ40 = test: Brain Aβ ELISA in wtPS1 transgenic mice treated with S-ibuprofen; assay type: in vivo, mouse; settings: 3-month-old wtPS1 transgenic mice, 375 ppm in diet, 15 days; P=0.03
Experimental: as §3
(§4) Ibuprofen treatment of wtPS1 mice: Three-month-old transgenic mice over-expressing wtPS1 were treated with S-ibuprofen (375 ppm in diet, Research Diets, New Brunswick, N.J.) or a control diet for 15 days (6 mice per group). […] At the end of the experimental period animals were sacrificed by CO2 inhalation. The brains were dissected, half of each brain was frozen on dry ice for Aβ ELISA and BACE activity analysis and the other half was fixed in 4% paraformaldehyde for immunohistochemistry. […]

BACE = target: T2, BACE (Mus musculus, UniProt P56818); test: BACE-specific enzymatic activity assay in brain of treated mice; assay type: in vivo; settings: S-ibuprofen 375 ppm in diet vs control diet, 15 days
T2 construct: from tissue; host or cells: frozen brain of wtPS1 transgenic mice
T2 sequence (P56818 46-501): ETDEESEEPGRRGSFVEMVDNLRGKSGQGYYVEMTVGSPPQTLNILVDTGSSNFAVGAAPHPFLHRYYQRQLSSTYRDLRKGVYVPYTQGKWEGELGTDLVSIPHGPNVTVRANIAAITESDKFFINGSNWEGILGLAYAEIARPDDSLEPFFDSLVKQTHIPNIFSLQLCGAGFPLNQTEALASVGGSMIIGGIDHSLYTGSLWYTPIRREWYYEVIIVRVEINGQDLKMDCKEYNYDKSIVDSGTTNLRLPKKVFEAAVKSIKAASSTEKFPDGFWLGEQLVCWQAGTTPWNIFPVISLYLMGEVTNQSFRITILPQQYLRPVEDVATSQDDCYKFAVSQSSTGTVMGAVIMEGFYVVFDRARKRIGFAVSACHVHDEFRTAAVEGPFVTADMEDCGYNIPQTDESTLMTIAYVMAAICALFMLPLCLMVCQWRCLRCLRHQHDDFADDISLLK
Experimental: as §3, §4

[1] = Chow consumption and mouse weight during ibuprofen treatment; assay type: in vivo; settings: S-ibuprofen 375 ppm in diet vs control diet, 15 days
Experimental: (§5) Ibuprofen treatment of wtPS1 mice: Three-month-old transgenic mice over-expressing wtPS1 were treated with S-ibuprofen (375 ppm in diet, Research Diets, New Brunswick, N.J.) or a control diet for 15 days (6 mice per group). […] At the end of the experimental period animals were sacrificed by CO2 inhalation. The brains were dissected, half of each brain was frozen on dry ice for Aβ ELISA and BACE activity analysis and the other half was fixed in 4% paraformaldehyde for immunohistochemistry.

PS1 [2] = target: T3, PS1 (Homo sapiens, UniProt P49768); test: FLIM assay of PS1 N-/C-termini proximity in primary cultured neurons; assay type: cell-based, mouse; set-up: expressed in transfected cells; host or cells: primary hippocampal-cortical neurons from embryonic day 16-18 mouse brain
Experimental: as §1, with “1999). Transfection protocol: Transient transfection in cells was performed using Superfect reagents (Qiagen, Valencia, Calif.) according to manufacturer's instructions. Primary cultured neurons were transfected with wild-type PS1 plasmid using the method of calcium phosphate co-precipitation as described (Berezovska, O. et al., Brain Res Mol Brain Res 69: 273-280, 1999; Chen, C. et al., Biotechniques 6: 632-638, 1987).” for “1999).”

PS1 [3] = target: T3, PS1; test: In vivo FLIM assay of proximity between N- and C-termini of PS1 in brain sections; set-up: expressed in transfected cells; host or cells: primary hippocampal-cortical neurons from embryonic day 16-18 mouse brain; species or system mouse; settings: mice, 375 ppm in diet, 15 days; control diet 1934±161 psec; P=0.02
Experimental: as §5
Half of the brain was fixed, sectioned at 35 μm, and immunostained with antibodies against the N- and C-termini of PS1.

[4] = system: APP and PS1 (PS1/γ-secretase complex); test: FLIM assay for PS1 loop-APP C-terminus proximity in CHO cells treated with γ-secretase inhibitors; assay type: cell-based, Chinese hamster; settings: WT PS1 CHO cells, donor PS1 loop-FITC, acceptor APP770-CY3, 4 h with DAPT 500 nM or WPE-III-31C 1 μM, non-FRET control 2600 ± 110, untreated 2290 ± 216
Experimental: Chinese hamster ovary (CHO) cells stably transfected with APP770 and either wild type PS1 (wt PS1) or Aspartate mutant PS1 (D257A PS1) were grown in OPTI-MEM with 5% fetal bovine serum and appropriate antibiotics (Puromycin or Zeocin, respectively, (Berezovska et al., 2000)).
Cells were fixed and immunostained 24 hrs posttransfection as described previously (Jack, C. et al., Brain Res Mol Brain Res 87: 166-174, 2001). We used a polyclonal C8 antibody (Selkoe, D. et al., Proc Natl Acad Sci USA 85: 7341-7345, 1988) to detect the C-terminus of APP. A monoclonal antibody to the loop region of PS1 (Chemicon, Temecula, Calif.) was used to identify the γ-secretase complex. PS1 N-terminal X81 antibody was a gift from D. Selkoe (Brigham and Women's Hospital, Boston, Mass.); PS1 C-terminal antibody was purchased from R&D Systems, Inc., Minneapolis, Minn.). For FRET/FLIM studies we chose Cy3-labeled goat anti-rabbit as the acceptor fluorophore, and FITC-labeled goat anti-mouse as the donor fluorophore.
Fluorescence Lifetime Imaging Microscopy (FLIM) relies on the observation that fluorescence lifetimes (the time of fluorophore emission after brief excitation, measured in picoseconds) are shorter in the presence of a FRET acceptor. […] We used a high-speed Hamamatsu detector and hardware/software from Becker and Hickl (Berlin, Germany) to measure fluorescence lifetimes on a pixel-by-pixel basis. […]
The following controls were used to establish and validate the FLIM assay: (1) As a negative control, FITC lifetime was measured in the absence of the acceptor. […] (2) As a positive control, FITC lifetime was measured in the presence of an acceptor. […] By contrast, the FITC fluorescence lifetime (FLIM image) within the area where the acceptor was photobleached reverts to a longer lifetime (color-coded as blue), identical to the lifetime of FITC in the absence of an acceptor (as in the negative control, FIG. 7A). […]
If there was no interaction, lifetimes on the order of ˜2600 psec were observed. If FRET was detected, a population with a statistically shorter lifetime (<˜2400 psec) was observed.

PS1 [5] = target: T3, PS1; test: Confocal staining with biotinylated WPE31C as histological reagent (wt PS1 vs D257A PS1 cells); assay type: cell-based; set-up: expressed in transfected cells; settings: cells expressing wt PS1
Experimental: PS1 immunostaining co-localizes with CY3-streptavidin labeled WPE-31C-bi in the cells expressing wt PS1. […] Bar=[…].
We reasoned that an agent that binds to the active site would compete with APP, blocking the APP-PS1 interaction if the first possibility were the case. […] The cells were treated with WPE-31C to examine whether APP would still be associated with the PS1 loop region. […] It has been observed that transition state analogues like WPE31C bind specifically to the heterodimeric form of PS1, and not to the holoprotein prior to cleavage. […] We used a biotinylated form of WPE31C (Esler, W. P. et al., Proc Natl Acad Sci USA 99: 2720-2725, 2002) as a histological reagent. […] Of note, there was less WPE-31C/Cy3 signal in the proximal perinuclear compartment, compared with PS1 immunoreactivity, confirming our observation that some of this PS1 is in a different conformation and is likely not proteolytically active.

| SMILES | Aβ42 level (ELISA) (Aβ40, Aβ42 and Aβ1-x) | Aβ40 level (ELISA) (Aβ40, Aβ42 and Aβ1-x) | Aβ1-x level (ELISA) (Aβ40, Aβ42 and Aβ1-x) | FITC lifetime (PS1 N- to C-termini distance) (PS1 [2]) | also measured |
| --- | --- | --- | --- | --- | --- |
| CC(C)Cc1ccc([C@@H](C)C(=O)O)cc1 [R-ibuprofen, (R)-ibuprofen] | marked reduction; also recorded: dose-dependent reduction | – | – | – | – |
| CC(C)Cc1ccc([C@H](C)C(=O)O)cc1 [S-ibuprofen, (S)-ibuprofen] | marked reduction; also recorded: dose-dependent reduction | reduced | did not observe a change | significantly increased | FITC lifetime APP-CT (mean ± SD) (APP and PS1): 2307 ± 107 psec; FITC lifetime APP-CT (mean ± SD) (APP and PS1; listed as ibuprofen): increased FITC lifetime; reduction of Aβ42/Aβ40 ratio in the brain vs control diet (Aβ42 and Aβ40): 12%; BACE activity in brain (BACE): No differences; amount of chow consumed, mouse weight [1]: no differences; FITC lifetime, brain sections stained for PS1 N- and C-termini (PS1 [3]): 2205±104 psec |
| COC(=O)[C@@H](NC(=O)[C@H](CC(C)C)NC(=O)N(Cc1ccccc1)C[C@@H](O)[C@H](Cc1ccccc1)NC(=O)OC(C)(C)C)C(C)C [WPE-III-31C] | – | – | – | – | FITC Lifetime (psec) mean ± SD ([4]; listed as WPE31C): 1972 ± 264 (n = 30) psec; FITC Lifetime (psec) mean ± SD ([4]; listed as WPE-31C): tight association between APP and PS1; CY3-streptavidin staining / co-localization with PS1 immunostaining (PS1 [5]): strongly stained |
| CC(=O)Oc1ccccc1C(=O)O [aspirin] | No or small change | No or small change | – | – | – |
| CC(C(=O)O)c1ccc(-c2ccccc2)c(F)c1 (centres unmarked) [flurbiprofen] | marked reduction; also recorded: dose-dependent reduction | reduced | did not observe a change | – | – |
| COc1ccc2c(c1)c(CC(=O)O)c(C)n2C(=O)c1ccc(Cl)cc1 [indomethacin] | marked reduction; also recorded: dose-dependent reduction | – | did not observe a change | significantly increased | – |
| COc1ccc2cc([C@H](C)C(=O)O)ccc2c1 [naproxen] | No or small change | No or small change | did not observe a change | not | – |
